target: T1, MerTK (Homo sapiens, UniProt Q12866); assay: PAKT HTRF-HUVEC assay (pAkt Ser473 HTRF after anti-human MerTK-XL stimulation); assay type: cell-based; conditions: HUVEC cells, 1 hour compound, stimulated with anti-human MerTK-XL 1 ug/mL for 10 minutes, read-out: inhibition of MerTK
T1 construct: Seed HUVECs (10K cells/well) in EBM-2 complete media; host or cells: HUVEC (primary human umbilical vein endothelial cells)
T1 sequence (Q12866 21-999): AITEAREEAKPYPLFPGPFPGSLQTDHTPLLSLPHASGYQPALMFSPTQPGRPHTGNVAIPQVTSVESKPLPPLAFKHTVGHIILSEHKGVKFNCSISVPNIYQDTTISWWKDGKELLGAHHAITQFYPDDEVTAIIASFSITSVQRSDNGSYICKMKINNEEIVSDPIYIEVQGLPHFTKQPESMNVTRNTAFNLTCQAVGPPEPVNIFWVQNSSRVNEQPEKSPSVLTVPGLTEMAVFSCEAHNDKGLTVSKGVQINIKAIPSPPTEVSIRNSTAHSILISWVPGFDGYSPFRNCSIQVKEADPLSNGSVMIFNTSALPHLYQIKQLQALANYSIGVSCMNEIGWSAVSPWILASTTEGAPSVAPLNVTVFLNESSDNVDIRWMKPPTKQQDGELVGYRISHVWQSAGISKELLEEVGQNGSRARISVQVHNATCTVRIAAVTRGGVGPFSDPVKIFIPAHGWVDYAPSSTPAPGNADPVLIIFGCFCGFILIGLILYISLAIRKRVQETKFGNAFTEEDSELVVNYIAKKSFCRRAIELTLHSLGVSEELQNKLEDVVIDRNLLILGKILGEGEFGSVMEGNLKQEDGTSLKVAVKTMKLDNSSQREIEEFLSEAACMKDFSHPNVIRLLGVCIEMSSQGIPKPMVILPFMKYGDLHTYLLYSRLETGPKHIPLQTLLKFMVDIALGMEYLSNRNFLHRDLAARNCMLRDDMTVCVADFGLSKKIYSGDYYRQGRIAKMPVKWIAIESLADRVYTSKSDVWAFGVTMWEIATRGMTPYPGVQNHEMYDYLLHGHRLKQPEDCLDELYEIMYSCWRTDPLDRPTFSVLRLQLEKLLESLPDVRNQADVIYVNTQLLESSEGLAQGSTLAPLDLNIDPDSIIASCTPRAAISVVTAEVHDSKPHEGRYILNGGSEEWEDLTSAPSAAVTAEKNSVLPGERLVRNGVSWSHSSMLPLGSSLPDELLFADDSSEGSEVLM
Outline: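 HUVECs starved 3-4 h in basal medium, preincubated with compound 1 h at 37° C, then stimulated 10 min with cross-linked anti-human MerTK antibody (final 1 ug/mL). Lysates read for pAkt (Ser473) by HTRF; EC50 from curve fitting.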

Structure (SMILES)	EC50
CN1CCN(Cc2ccc3c(c2)c(=O)n([C@H]2CC[C@H](O)CC2)c2nc(NC4CC(F)(F)C4)ncc32)CC1 [Compound 12, trans-3-((3,3-Difluorocyclobutyl)amino)-5-(4-hydroxycyclohexyl)-8-((4-methylpiperazin-1-yl)methyl)pyrimido[4,5-c]isoquinolin-6(5H)-one]	0.116 µM
O=c1c2cc(CN3CCN(c4ccncc4)CC3)ccc2c2cnc(NCC3CCC3)nc2n1[C@H]1CC[C@H](O)CC1 [Compound 220, trans-3-((Cyclobutylmethyl)amino)-5-(4-hydroxycyclohexyl)-8-((4-(pyridin-4-yl)piperazin-1-yl)methyl)pyrimido[4,5-c]isoquinolin-6(5H)-one]	0.0112 µM
CN1CCN(c2ccc3c(c2)c(=O)n([C@H]2CC[C@](C)(O)CC2)c2nc(NCCC4CC4)ncc32)CC1 [Compound 98, trans-3-((2-Cyclopropylethyl)amino)-5-(4-hydroxy-4-methylcyclohexyl)-8-(4-methylpiperazin-1-yl)pyrimido[4,5-c]isoquinolin-6(5H)-one]	0.0357 µM
CCCCNc1ncc2c3ccc(CN4CCN(C)CC4)cc3c(=O)n([C@H]3CC[C@H](O)CC3)c2n1 [Compound 3, trans-3-(Butylamino)-5-(4-hydroxycyclohexyl)-8-((4-methylpiperazin-1-yl)methyl)pyrimido[4,5-c]isoquinolin-6(5H)-one]	0.0288 µM
CC1(O)CCC(n2c(=O)c3cc(CN4CCN(C5COC5)CC4)ccc3c3cnc(NCC4CC4)nc32)CC1 (centres unmarked) [Compound 148]	0.0168 µM
CN1CCN(Cc2ccc3c(c2)c(=O)n([C@H]2CC[C@H](NC(=O)OC(C)(C)C)CC2)c2nc(NCC4CC4)ncc32)CC1 [Compound 184, trans-tert-Butyl (4-(3-((cyclopropylmethyl)amino)-8-((4-methylpiperazin-1-yl)methyl)-6-oxopyrimido[4,5-c]isoquinolin-5(6H)-yl)cyclohexyl)carbamate]	5.14 µM
CCC1(CNc2ncc3c4ccccc4c(=O)n([C@H]4CC[C@H](O)CC4)c3n2)CCC1 [Compound 116, trans-3-(((1-Ethylcyclobutyl)methyl)amino)-5-(4-hydroxycyclohexyl)pyrimido [4,5-c]isoquinolin-6(5H)-one]	4.62 µM
CCC[C@H](C)Nc1ncc2c3ccc(CN4CCN(c5ccncc5)CC4)cc3c(=O)n([C@H]3CC[C@H](O)CC3)c2n1 [Compound 219, trans-5-(4-Hydroxycyclohexyl)-3-(((S)-pentan-2-yl)amino)-8-((4-(pyridin-4-yl)piperazin-1-yl)methyl)pyrimido[4,5-c]isoquinolin-6(5H)-one]	0.0183 µM
O=c1c2cc(N3CCN(C4CC4)CC3)ccc2c2cnc(NCC3CC3)nc2n1[C@H]1CC[C@H](O)CC1 [Compound 110, trans-3-((Cyclopropylmethyl)amino)-8-(4-cyclopropylpiperazin-1-yl)-5-(4-hydroxycyclohexyl)pyrimido [4,5-c]isoquinolin-6(5H)-one]	0.483 µM
O=c1c2cc(CN3CCNCC3)ccc2c2cnc(NCC3CC3)nc2n1[C@H]1CC[C@H](O)CC1 [Compound 171]	0.309 µM

Further lines, results first:

EC50	Structure (SMILES)
0.156 µM	CCCCNc1ncc2c3ccc(N4C[C@@H](C)N(C)C[C@@H]4C)cc3c(=O)n(C3CCC(=O)CC3)c2n1 [Compound 79, 3-(Butylamino)-5-(4-oxocyclohexyl)-8-((2S,5R)-2,4,5-trimethylpiperazin-1-yl)pyrimido[4,5-c]isoquinolin-6(5H)-one]
0.144 µM	CN1CCN(Cc2ccc3c(c2)c(=O)n([C@H]2CC[C@H](O)CC2)c2nc(NC4CC(F)C4)ncc32)CC1 (stereo partly drawn) [Compound 13, trans-3-((3-Fluorocyclobutyl)amino)-5-(4-hydroxycyclohexyl)-8-((4-methylpiperazin-1-yl)methyl)pyrimido[4,5-c]isoquinolin-6(5H)-one]
0.38 µM	O=c1c2cc(N3CCN(C4COC4)CC3)ccc2c2cnc(NCC3CC3)nc2n1[C@H]1CC[C@H](O)CC1 [Compound 111, trans-3-((Cyclopropylmethyl)amino)-5-(4-hydroxycyclohexyl)-8-(4-(oxetan-3-yl)piperazin-1-yl)pyrimido[4,5-c]isoquinolin-6(5H)-one]
0.0046 µM	CC(C)N1CCN(Cc2ccc3c(c2)c(=O)n([C@H]2CC[C@H](O)CC2)c2nc(NCC4CCC4)ncc32)CC1 [Compound 33, trans-3-((Cyclobutylmethyl)amino)-5-(4-hydroxycyclohexyl)-8-((4-isopropylpiperazin-1-yl)methyl)pyrimido[4,5-c]isoquinolin-6(5H)-one]
0.0074 µM	CN1CCN(Cc2ccc3c(c2)c(=O)n([C@H]2CC[C@](C)(O)CC2)c2nc(NCC4CCC4)ncc32)CC1 [Compound 34, trans-3-((Cyclobutylmethyl)amino)-5-(4-hydroxy-4-methylcyclohexyl)-8-((4-methylpiperazin-1-yl)methyl)pyrimido[4,5-c]isoquinolin-6(5H)-one]
0.0507 µM	O=c1c2cc(CN3CCN(CC(F)(F)F)CC3)ccc2c2cnc(NCC3CC3)nc2n1[C@H]1CC[C@H](O)CC1 [Compound 152]
15.8 µM	CCC(F)(F)CNc1ncc2c3ccccc3c(=O)n([C@H]3CC[C@H](O)CC3)c2n1 [Compound 119, trans-3-((2,2-difluorobutyl)amino)-5-(4-hydroxycyclohexyl)pyrimido [4,5-c]isoquinolin-6(5H)-one]
0.0487 µM	O=c1c2cc(CN3CCN4CCC[C@@H]4C3)ccc2c2cnc(NCC3CC3)nc2n1[C@H]1CC[C@H](O)CC1 [Compound 159]
1.68 µM	CN1CCN(Cc2ccc3c(c2)c(=O)n([C@H]2CC[C@H](O)CC2)c2nc(NCCCC(F)(F)F)ncc32)CC1 [Compound 25, trans-5-(4-hydroxycyclohexyl)-8-((4-methylpiperazin-1-yl)methyl)-3-((4,4,4-trifluorobutyl)amino)pyrimido [4,5-c]isoquinolin-6(5H)-one]
0.134 µM	CCCCNc1ncc2c3ccc(CN4CCN(C)CC4)cc3c(=O)n([C@H]3CC[C@H](C(=O)NCC(F)(F)F)CC3)c2n1 [Compound 139, trans-4-(3-(Butylamino)-8-((4-methylpiperazin-1-yl)methyl)-6-oxopyrimido[4,5-c]isoquinolin-5(6H)-yl)-N-(2,2,2-trifluoroethyl)cyclohexane-1-carboxamide]
0.347 µM	CN1CCN(Cc2ccc3c(c2)c(=O)n([C@H]2CC[C@H](C(N)=O)CC2)c2nc(NCC4CC4)ncc32)CC1 [Compound 134, trans-4-(3-((Cyclopropylmethyl)amino)-8-((4-methylpiperazin-1-yl)methyl)-6-oxopyrimido[4,5-c]isoquinolin-5(6H)-yl)cyclohexane-1-carboxamide]
0.0257 µM	CC1(O)CCN(Cc2ccc3c(c2)c(=O)n(C2CCC(O)CC2)c2nc(NCC4CC4)ncc32)CC1 (centres unmarked) [Compound 145, 3-((cyclopropylmethyl)amino)-8-((4-hydroxy-4-methylpiperidin-1-yl)methyl)-5-((1s,4s)-4-hydroxycyclohexyl)pyrimido[4,5-c]isoquinolin-6(5H)-one]
0.072 µM	CCCCNc1ncc2c3ccc(CN4CCN(C)CC4)cc3c(=O)n([C@H]3CCC[C@H](O)CC3)c2n1 [Compound 229, 3-(butylamino)-5-((1S,4S)-4-hydroxycycloheptyl)-8-((4-methylpiperazin-1-yl)methyl)pyrimido[4,5-c]isoquinolin-6(5H)-one]
